Source: ChEMBL document CHEMBL1146718, “Discovery of a potent, selective and orally active canine COX-2 inhibitor, 2-(3-difluoromethyl-5-phenyl-pyrazol-1-yl)-5-methanesulfonyl-pyridine” (Bioorg Med Chem Lett, 2004)

Columns and labels:
[1] = in vivo; settings: dog, plasma, po, 5 mg/kg
[2] = in vivo; settings: dog, po, 5 mg/kg
[3] = in vivo; settings: dog, po, 5 mg/kg; remark: listed apart in the source
[4] = in vivo; settings: dog, po, 5 mg/kg; remark: listed apart in the source
[5] = in vivo; settings: dog, plasma, po, 5 mg/kg; remark: listed apart in the source

SMILES: CS(=O)(=O)c1ccc(-n2nc(C(F)F)cc2-c2ccccc2)nc1
- Cmax [1]: 1090 ng/mL
- Tmax [2]: 1.5 h
- half-life [3]: 26 h

SMILES: CS(=O)(=O)c1ccc(-n2nc(C(F)(F)F)cc2-c2ccc(F)cc2)nc1
- Cmax [1]: 540 ng/mL
- Tmax [2]: 0.8 h
- concentration at 24 h [4]: 134 ng/mL
- AUC [5]: 4820 ng·h/mL
- half-life [3]: 17.5 h

SMILES: Cc1ccc(-c2cc(C(F)(F)F)nn2-c2ccc(S(N)(=O)=O)cc2)cc1 [CELECOXIB]
- Cmax [1]: 540 ng/mL
- AUC [5]: 3100 ng·h/mL
- half-life [3]: 3.3 h

SMILES: CS(=O)(=O)c1ccc(-n2nc(C(F)(F)F)cc2-c2ccccc2)nc1
- Cmax [1]: 611 ng/mL
- Tmax [2]: 0.8 h
- concentration at 24 h [4]: 77 ng/mL
- AUC [5]: 4280 ng·h/mL
- half-life [3]: 13.1 h

SMILES: CS(=O)(=O)c1ccc(-n2nc(C(F)F)cc2-c2ccc(F)cc2)nc1
- Cmax [1]: 509 ng/mL
- Tmax [2]: 1.3 h
- concentration at 24 h [4]: 329 ng/mL
- AUC [5]: 7650 ng·h/mL
- half-life [3]: 17 h
